Holding throughout (experiment): NCI tumour cell line growth inhibition, 48 h
Assay [1] concerns NCI/ADR-RES ovarian.
For assay [2], the system named is HOP-92 NSCLC.
Assay [3] concerns SK-OV-3 ovarian.
The subject of assay [4] is ACHN renal.
In assay [5] the test system is IGROV1 ovarian.
Assay [6] concerns OVCAR-3 ovarian.
For assay [7], the system named is HT29 colon.
The subject of assay [8] is U251 CNS.
In assay [9] the test system is K-562 leukemia.
Assay [10] concerns CAKI-1 renal.
Assay [11] concerns HL-60(TB) leukemia.
For assay [12], the system named is MDA-MB-435.
Assay [13] deals with SF-268 CNS.
The test system of assay [14] is NCI-H522 lung.
The subject of assay [15] is HOP-62 NSCLC.
Assay [16] has as its system T-47D breast.
Assay [17] relates to CCRF-CEM leukemia.

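These data come from cells grown in 96-well plates and exposed to compound for 48 hours at five concentrations. TGI is the concentration that stops growth completely.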 Bounds are passed on as bounds.

Regarding `COc1ccc(NC(=S)c2ccc([N+](=O)[O-])o2)cc1`, the TGI in assay [1] was 12.2 µM; in assay [2] it was 30.6 µM; in [3], 25.7 µM; in assay [4] it was 5.42 µM; in assay [5] it was 8.56 µM; in assay [6], 4.42 µM. Besides, the TGI was found to be 3.7 µM in assay [7]; 2.55 µM in [8]; 7.55 µM in assay [9]; 14.1 µM in [10]; 5.89 µM in assay [11]; 5.66 µM in assay [12]. Besides, the TGI is 9.76 µM in [13]; 2.92 µM in assay [14]; 8.26 µM in assay [15]; 17.3 µM in assay [16]; 8.66 µM in assay [17].
Take `N/C(=N\N=C\c1nc2ccccc2o1)c1cnccn1`: the TGI in [1], in [2], in assay [3], in [4], in [5] and in assay [6] was over 100 µM in each case. The TGI in assay [7], in assay [8], in [9], in assay [10], in assay [11] and in assay [12] was over 100 µM in each case. Moreover, the TGI in assay [13], in assay [14], in assay [15], in assay [16] and in assay [17] was over 100 µM each time.
On to `CO/C(N)=C(\C#N)N=Cc1ccsc1`, for which the TGI in [1], in [2], in assay [3], in assay [4], in [5] and in assay [6] was over 100 µM in each case. Further, the TGI in [7] was over 100 µM; in assay [8] it was over 100 µM; in assay [9], over 100 µM; in [10], over 100 µM; in assay [11] it was 45.9 µM; in assay [12], over 100 µM. The TGI was over 100 µM in [13]; 79.6 µM in [14]; over 100 µM in [15]; over 100 µM in assay [16]; 81 µM in [17].
In the case of `CC1C(OS(=O)(=O)c2ccc3[nH]c(=S)sc3c2)CC2C3(C)CCC2(C(C)C(=O)O)C(O)C13` (centres undefined), the TGI in assay [1] was over 100 µM; in [2] it was over 100 µM; in assay [3], over 100 µM; in assay [4], 31.8 µM; in [5], 35.8 µM; in [6], 42.5 µM. For the same compound, the TGI in assay [7] is 35.4 µM; in assay [8] it was 38.6 µM; in assay [9], over 100 µM; in [10] it was 64.3 µM; in assay [11] it was 58 µM; in assay [12], 47.8 µM. The TGI in assay [13] is over 100 µM; in assay [14], 17.2 µM; in [15] it was 66.5 µM; in [16] it was 48.3 µM; in [17], 65.5 µM.
Regarding `CCN(CC)/[N+]([O-])=N/OS(=O)(=O)N(C)C`, the TGI in assay [1], in assay [2], in assay [3], in assay [4], in assay [5] and in assay [6] was over 100 µM throughout. Also, the TGI in assay [7], in assay [8], in [9], in [10], in [11] and in [12] was over 100 µM throughout. For the same compound, the TGI in assay [13], in assay [14], in assay [15], in [16] and in assay [17] was over 100 µM throughout.
Take `COC(=O)c1c(C)cccc1C1CN=NC12Cc1cc(C)c(C)cc1C2=O` (centres undefined): the TGI in assay [1], in assay [2], in assay [3], in assay [4], in [5] and in [6] was over 100 µM each time. The TGI in assay [7] is over 100 µM; in assay [8] it was over 100 µM; in assay [9] it was over 100 µM; in [10], over 100 µM; in assay [11] it was 45.5 µM; in assay [12], over 100 µM. Further, the TGI in assay [13] is over 100 µM; in assay [14], 54.6 µM; in assay [15], over 100 µM; in assay [16], over 100 µM; in assay [17], over 100 µM.
As to `Cc1ccc2c(=O)cc(-c3cc(C)sc3C)[nH]c2n1`, the TGI in assay [1] is 5.29 µM; in assay [2], over 100 µM; in [3] it was over 82.7 µM; in assay [4], over 100 µM; in [5], over 100 µM; in assay [6], 58.6 µM. Moreover, the TGI in [7] was 32.9 µM; in assay [8], over 100 µM; in assay [9], over 100 µM; in assay [10], over 100 µM; in assay [11], 6.74 µM; in assay [12], 2.86 µM. The TGI in [13] is over 73.4 µM; in [14], over 22.2 µM; in assay [15], over 100 µM; in [16], over 100 µM; in assay [17] it was over 25.5 µM.
With `Cc1cccc(C)c1NC(=O)C(=O)CC(=O)c1sc(Nc2c(C)cccc2C)nc1C`, the TGI in assay [1], in assay [2], in [3], in assay [4], in assay [5] and in [6] was over 100 µM throughout. Moreover, the TGI in [7], in assay [8], in assay [9], in [10], in [11] and in assay [12] was over 100 µM each time. Also, the TGI in [13], in assay [14], in assay [15], in assay [16] and in [17] was over 100 µM throughout.
`COc1ccc(/C=C2\C[C@H]3[C@@H]4CC=C5C[C@@H](O)CC[C@]5(C)[C@H]4CC[C@]3(C)\C2=N\O)cc1`: the TGI in assay [1] is over 100 µM; in [2], over 100 µM; in assay [3] it was over 100 µM; in [4] it was over 100 µM; in assay [5] it was 96.2 µM; in assay [6] it was 29.7 µM. The TGI was over 100 µM in assay [7]; over 100 µM in [8]; 45.9 µM in [9]; 19.3 µM in assay [10]; 24.8 µM in assay [11]; over 100 µM in assay [12]. Also, the TGI in assay [13] is 46.2 µM; in assay [14], 50 µM; in assay [15] it was over 100 µM; in assay [16] it was 4.68 µM; in assay [17], over 100 µM.
With `CC(C)(C)OC(=O)/N=C/c1c(O)c2ccccc2oc1=O`, the TGI in assay [1] was over 100 µM; in assay [2] it was over 100 µM; in [3] it was 0.0852 µM; in [4], over 100 µM; in assay [5], over 100 µM; in assay [6], over 100 µM. Besides, the TGI in assay [7] is over 100 µM; in assay [8], over 100 µM; in [9], over 100 µM; in assay [10], 52.6 µM; in assay [11], over 100 µM; in assay [12], over 100 µM. Besides, the TGI in assay [13] is over 100 µM; in assay [14] it was 0.0208 µM; in assay [15] it was over 100 µM; in assay [16], over 100 µM; in assay [17], over 100 µM.
With `Cc1nc2ccc(N=Nc3c(C)noc3C)cc2[nH]1`, the TGI in assay [1] was over 100 µM; in assay [2] it was 60.2 µM; in assay [3], 56.7 µM; in [4], 86.2 µM; in assay [5], 34.3 µM; in [6], 84.2 µM. Moreover, the TGI is 71.1 µM in assay [7]; over 100 µM in assay [8]; over 100 µM in [9]; 86.8 µM in [10]; 61.6 µM in [11]; over 100 µM in assay [12]. Also, the TGI in assay [13] was over 100 µM; in assay [14], over 100 µM; in assay [15], over 100 µM; in [16], 15.2 µM; in assay [17] it was over 100 µM.
As to `CC(C)=CCC[C@@H](C)C1=C(N)C(O)=C(C)C(=O)C1=O`, the TGI in assay [1] is over 38.8 µM; in [2], over 75 µM; in [3], over 75 µM; in assay [4] it was over 53.4 µM; in [5] it was over 75 µM; in [6] it was over 75 µM. The TGI in assay [7] was over 48 µM; in [8], over 75 µM; in assay [9], over 75 µM; in assay [10] it was over 75 µM; in assay [11], 39.5 µM; in assay [12], over 75 µM. In addition, the TGI in assay [13] was over 75 µM; in assay [14], 50.9 µM; in assay [15], over 75 µM; in [16], over 75 µM; in [17] it was over 70.9 µM.

These data come from PubChem BioAssay (NCI).
